One test deals with Cytochrome P450 3A4 (Homo sapiens, UniProt P08684). The test can be described thus: Inhibition of CYP3A4 after 30 mins by fluorescence assay. The class given is ADME. Particulars: read-out: INH.
In a further test the test system is Blood. The test can be described thus: Antiinflammatory activity against LPS-induced TNFalpha production in human diluted whole blood administered 15 mins before LPS treatment after 2 hrs by ELISA. Type of test: functional, tissue-based. Background: ELISA stands for enzyme-linked immunosorbent assay.
Test [1] addresses Mitogen-activated protein kinase 14 (Homo sapiens, UniProt Q16539). The test can be described thus: Inhibition of human p38alpha assessed as gamma-[32P]ATP incorporation after 60 mins by scintillation counting.

IC50 data for 47 molecules are collected here from ChEMBL document CHEMBL1156216, “Amide-based inhibitors of p38alpha MAP kinase. Part 2: design, synthesis and SAR of potent N-pyrimidyl amides” (Bioorg Med Chem Lett, 2010).

Mitogen-activated protein kinase 14, sequence (Q16539 whole entry): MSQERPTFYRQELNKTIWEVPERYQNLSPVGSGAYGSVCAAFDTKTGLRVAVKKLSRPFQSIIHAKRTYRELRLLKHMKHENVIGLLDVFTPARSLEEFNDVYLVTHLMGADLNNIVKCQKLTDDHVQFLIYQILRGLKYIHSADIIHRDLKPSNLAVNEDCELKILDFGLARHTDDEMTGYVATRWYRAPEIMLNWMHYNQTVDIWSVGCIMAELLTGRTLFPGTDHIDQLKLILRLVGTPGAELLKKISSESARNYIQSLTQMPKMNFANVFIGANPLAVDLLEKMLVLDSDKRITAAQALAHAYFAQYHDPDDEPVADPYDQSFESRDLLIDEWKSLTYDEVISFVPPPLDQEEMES
Cytochrome P450 3A4, sequence (P08684 whole entry): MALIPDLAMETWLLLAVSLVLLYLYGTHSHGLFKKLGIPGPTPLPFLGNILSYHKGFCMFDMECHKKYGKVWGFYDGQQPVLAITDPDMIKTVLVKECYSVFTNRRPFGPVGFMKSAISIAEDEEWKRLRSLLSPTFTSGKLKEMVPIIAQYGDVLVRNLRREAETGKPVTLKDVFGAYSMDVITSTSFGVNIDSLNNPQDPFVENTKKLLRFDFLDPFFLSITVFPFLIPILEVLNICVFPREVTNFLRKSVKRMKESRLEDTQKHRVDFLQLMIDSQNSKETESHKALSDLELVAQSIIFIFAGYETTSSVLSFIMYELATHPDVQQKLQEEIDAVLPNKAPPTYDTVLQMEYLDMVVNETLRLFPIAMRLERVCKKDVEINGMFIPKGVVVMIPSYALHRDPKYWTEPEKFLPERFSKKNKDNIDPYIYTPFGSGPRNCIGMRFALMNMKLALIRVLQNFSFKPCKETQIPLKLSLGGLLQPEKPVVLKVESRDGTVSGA

Turning to `NCCCCN(C(=O)c1ccc2c(c1)CCO2)c1ccnc(NC2CCC(O)CC2)n1` (stereo not drawn), the IC50 on Cytochrome P450 3A4 is greater than 20000 nM; in the test on Blood, 865 nM; in test [1], 11 nM.

`C[C@H](Nc1nccc(N(CC2CCN(S(N)(=O)=O)CC2)C(=O)c2ccc3c(c2)CCO3)n1)c1ccccc1`: the IC50 was greater than 10000 nM in the test with Blood and 673 nM in test [1].

For `CCN(C(=O)c1ccc2ccccc2c1)c1ccnc(N[C@@H](C)c2ccccc2)n1`, the IC50 in the test on Blood worked out at 187 nM; in test [1], 64 nM.

Consider `NC1CCC(Nc2nccc(N(CC3CCNCC3)C(=O)c3ccc4c(c3)CCO4)n2)CC1` (stereo not drawn), for which the IC50 at Cytochrome P450 3A4 is greater than 20000 nM; in the test with Blood, greater than 10000 nM; in test [1] it was 400 nM.

Regarding `CCN(C(=O)c1ccc(Cl)cc1)c1ccnc(N[C@@H](C)c2ccccc2)n1`, the IC50 in the test on Blood is greater than 10000 nM; in test [1] it was 313 nM.

`CCN(C(=O)c1ccc2occc2c1)c1ccnc(N[C@@H](C)c2ccccc2)n1`: the IC50 in the test on Blood came to 313 nM; in test [1], 71 nM.

For `CCN(C(=O)c1csc2ccccc12)c1ccnc(N[C@@H](C)c2ccccc2)n1`, the IC50 is greater than 1000 nM in the test on Blood and 188 nM in test [1].

As for `CCN(C(=O)c1cccc(Cl)c1)c1ccnc(N[C@@H](C)c2ccccc2)n1`, the IC50 is 533 nM with Blood and 81 nM in test [1].

`COC[C@H](C)Nc1nccc(N(CCCCN)C(=O)c2ccc3c(c2)CCO3)n1`: the IC50 at Cytochrome P450 3A4 worked out at 2650 nM; in the test with Blood, 48 nM; in test [1], 25 nM.

In the case of `CCN(C(=O)c1ccc2c(c1)CCO2)c1ccnc(N[C@@H](C)c2ccccc2)n1`, the IC50 is 387 nM with Blood and 17 nM in test [1].

With `CCc1cccc(C(=O)N(CC)c2ccnc(N[C@@H](C)c3ccccc3)n2)c1`, the IC50 stood at 152 nM with Blood and 65 nM in test [1].

On to `CC(C)Nc1nccc(N(CC2CCNCC2)C(=O)c2ccc3c(c2)CCO3)n1`, for which the IC50 at Cytochrome P450 3A4 worked out at 2900 nM; with Blood, 88 nM; in test [1], 24 nM.

Turning to `CC(C)CN(C(=O)c1ccc2c(c1)CCO2)c1ccnc(N[C@@H](C)c2ccccc2)n1`, the results for the IC50 (in the test with Blood; in test [1]) were 2090 nM and 462 nM, respectively.

Take `CCN(C(=O)c1cccc(C2CC2)c1)c1ccnc(N[C@@H](C)c2ccccc2)n1`: the results for the IC50 (with Blood; in test [1]) were 349 nM and 104 nM, respectively.

`CCN(C(=O)c1ccc2ccccc2c1)c1ccnc(N[C@@H](C)c2ccccc2)c1` returned an IC50 in the test with Blood greater than 1000 nM.

For `CCN(C(=O)c1ccc2c(c1)CCC2)c1ccnc(N[C@@H](C)c2ccccc2)n1`, the IC50 was found to be 300 nM in the test with Blood and 45 nM in test [1].

Consider `CCN(C(=O)c1cn(C)c2ccccc12)c1ccnc(N[C@@H](C)c2ccccc2)n1`, for which the IC50 with Blood was greater than 10000 nM; in test [1] it was 154 nM.

`O=C(c1ccc2c(c1)CCO2)N(CC1CCNCC1)c1ccnc(NC2CC2)n1`: the IC50 on Cytochrome P450 3A4 worked out at 340 nM; with Blood, 50 nM; in test [1], 600 nM.

Regarding `CCN(C(=O)c1ccc2c(c1)CCCC2)c1ccnc(N[C@@H](C)c2ccccc2)n1`, the figures for the IC50 (in the test with Blood; in test [1]) were greater than 1000 nM and 180 nM, respectively.

With `C[C@H](Nc1nccc(N(CC2CCCNC2)C(=O)c2ccc3c(c2)CCO3)n1)c1ccccc1` (stereo partly drawn), the IC50 in test [1] is greater than 10000 nM.

In the case of `CCN(C(=O)c1cc2ccccc2o1)c1ccnc(N[C@@H](C)c2ccccc2)n1`, the values for the IC50 (in the test on Blood; in test [1]) were greater than 10000 nM and 179 nM, respectively.

Take `CCN(C(=O)c1ccc(F)c(C)c1)c1ccnc(N[C@@H](C)c2ccccc2)n1`: the results for the IC50 (with Blood; in test [1]) were 178 nM and 39 nM, respectively.

In the case of `C[C@H](Nc1nccc(N(CC2CCN(C(N)=O)CC2)C(=O)c2ccc3c(c2)CCO3)n1)c1ccccc1`, the IC50 in the test on Blood stood at 524 nM; in test [1], 711 nM.

For the molecule `CCN(C(=O)c1cccc(C(F)(F)F)c1)c1ccnc(N[C@@H](C)c2ccccc2)n1`, the IC50 is greater than 1000 nM with Blood and 64 nM in test [1].

Take `CCN(C(=O)c1cccc2c1OCC2)c1ccnc(N[C@@H](C)c2ccccc2)n1`: the IC50 in the test on Blood is 829 nM; in test [1], 90 nM.

On to `C[C@H](Nc1nccc(N(CCCS(C)(=O)=O)C(=O)c2ccc3c(c2)CCO3)n1)c1ccccc1`, for which the IC50 amounted to 564 nM in the test with Blood and 72 nM in test [1].

For the molecule `CCN(C(=O)c1ccc(C)c(C)c1)c1ccnc(N[C@@H](C)c2ccccc2)n1`, the values for the IC50 (with Blood; in test [1]) were 143 nM and 91 nM, respectively.

With `O=C(c1ccc2c(c1)CCO2)N(CC1CCNCC1)c1ccnc(NC2CCC(O)CC2)n1` (stereo not drawn), the results for the IC50 (at Cytochrome P450 3A4; in the test with Blood; in test [1]) were greater than 20000 nM, 3290 nM and 360 nM, respectively.

In the case of `COCCN(C(=O)c1ccc2c(c1)CCO2)c1ccnc(N[C@@H](C)c2ccccc2)n1`, the figures for the IC50 (in the test on Blood; in test [1]) were greater than 10000 nM and 345 nM, respectively.

On to `C[C@H](Nc1nccc(N(CC2CCCCN2)C(=O)c2ccc3c(c2)CCO3)n1)c1ccccc1` (stereo partly drawn), for which the IC50 in test [1] was greater than 10000 nM.

As to `C[C@H](Nc1nccc(N(CC2CCOCC2)C(=O)c2ccc3c(c2)CCO3)n1)c1ccccc1`, the IC50 was greater than 10000 nM with Blood and 158 nM in test [1].

In the case of `CCN(C(=O)c1ccccc1Cl)c1ccnc(N[C@@H](C)c2ccccc2)n1`, the IC50 was greater than 1000 nM in the test on Blood and 267 nM in test [1].

For `CCN(C(=O)c1ccccc1)c1ccnc(N[C@@H](C)c2ccccc2)n1`, the results for the IC50 (in the test on Blood; in test [1]) were greater than 10000 nM and 193 nM, respectively.

Turning to `C[C@@H](CO)Nc1nccc(N(CCCCN)C(=O)c2ccc3c(c2)CCO3)n1`, the IC50 on Cytochrome P450 3A4 came out at 11700 nM; with Blood, 2940 nM; in test [1] it was 310 nM.

Consider `C[C@H](Nc1nccc(N(CCCCO)C(=O)c2ccc3c(c2)CCO3)n1)c1ccccc1`, for which the results for the IC50 (in the test with Blood; in test [1]) were 130 nM and 96 nM, respectively.

With `CCC(COC)Nc1nccc(N(CC2CCNCC2)C(=O)c2ccc3c(c2)CCO3)n1` (stereo not drawn), the values for the IC50 (on Cytochrome P450 3A4; with Blood; in test [1]) were 367 nM, 112 nM and 530 nM, respectively.

For the molecule `CCN(C(=O)c1cc(C)ccc1F)c1ccnc(N[C@@H](C)c2ccccc2)n1`, the values for the IC50 (in the test with Blood; in test [1]) were 58 nM and 26 nM, respectively.

As for `C[C@H](Nc1nccc(N(CCCN)C(=O)c2ccc3c(c2)CCO3)n1)c1ccccc1`, the IC50 in test [1] is greater than 10000 nM.

As for `CC(C)Nc1nccc(N(CCCCN)C(=O)c2ccc3c(c2)CCO3)n1`, the figures for the IC50 (at Cytochrome P450 3A4; with Blood; in test [1]) were 3120 nM, 90 nM and 17 nM, respectively.

For `CCN(C(=O)c1ccc2c(c1)OCO2)c1ccnc(N[C@@H](C)c2ccccc2)n1`, the figures for the IC50 (in the test on Blood; in test [1]) were greater than 1000 nM and 164 nM, respectively.

With `CCN(C(=O)c1cccc(C)c1)c1ccnc(N[C@@H](C)c2ccccc2)n1`, the IC50 came to 140 nM in the test with Blood and 13 nM in test [1].

Regarding `C[C@H](Nc1nccc(N(CC2CCNCC2)C(=O)c2ccc3c(c2)CCO3)n1)c1ccccc1`, the IC50 amounted to 94 nM at Cytochrome P450 3A4, 15 nM in the test on Blood and 54 nM in test [1].

In the case of `C[C@H](Nc1nccc(N(CC2CC2)C(=O)c2ccc3c(c2)CCO3)n1)c1ccccc1`, the figures for the IC50 (in the test on Blood; in test [1]) were 704 nM and 165 nM, respectively.

With `CC(C)(CO)Nc1nccc(N(CC2CCNCC2)C(=O)c2ccc3c(c2)CCO3)n1`, the IC50 is 1540 nM on Cytochrome P450 3A4, greater than 10000 nM in the test with Blood and 3040 nM in test [1].

As to `C[C@H](Nc1nccc(N(CCCCN)C(=O)c2ccc3c(c2)CCO3)n1)c1ccccc1`, the IC50 at Cytochrome P450 3A4 came to 180 nM; in the test on Blood it was 9 nM; in test [1] it was 4 nM.

As to `COC[C@H](C)Nc1nccc(N(CC2CCNCC2)C(=O)c2ccc3c(c2)CCO3)n1`, the IC50 was determined as 2020 nM on Cytochrome P450 3A4, 460 nM in the test with Blood and 316 nM in test [1].

Take `CCN(C(=O)c1cccc(C)c1C)c1ccnc(N[C@@H](C)c2ccccc2)n1`: the IC50 in the test on Blood is 400 nM; in test [1], 81 nM.
